From patent US20260097111A1, “ETHER LIPIDS FOR HYPERACTIVATION OF MAMMALIAN DENDRITIC CELLS” (priority 2022, published 2026)

Experiments:
human moDCs = assay: In vitro transwell migration assay towards CCL19; format: cell-based; settings: donor HD87, 10 ng/mL CCL19; FIG. 34A
Description: In Vitro Transwell Migration Assay. To test the capacity of human dendritic cells to migrate, an in vitro migration assay was set up. After differentiation into moDC using GM-CSF and IL-4, cells were plated on 10 cm petri dishes at 4×10^6 cells/plate in R10++. Cells were treated with various combinations of 2.85 μM R848, 82.5 μM DGP, and 10 μM MCC950 (final concentrations). Additionally, 50 ng/mL GM-CSF and 25 ng/mL IL-4 was added to the plates. Cell cultures were incubated in a total of 8 mL/plate in a 37° C. incubator on an orbital shaker set at 100 rpm overnight.
Cells were collected from plates and any remaining cells on plates were washed off the plates using PBS. After pelleting cells at 400×g for 5 min, cells were resuspended in R10++ and counted. Cell concentrations were adjusted to 5×10^5 cells/mL and plated in triplicate in the apical chambers of transwells at 1.5×10^5 cells/well. R10++ media containing 0; 20; or 200 ng/mL CCL19 were prepared and added to the basal chambers at 300 μL/well. For each cell treatment condition, control wells without transwell inserts were plated with an equivalent volume of cells and R10++ media. […]
To enumerate migrated DCs, an absolute count was obtained based on the total events acquired of counting beads and live, CD11c+CD209+ single cells. […] Finally, migration was calculated relative to cells treated with only R848 with no CCL19 added.

[1] = DGP DP sizing (Malvern Mastersizer 3000); format: physicochemical
Description: DGP (Compound 2) DP Synthesis. DGP DP was synthesized at a 3 mL scale using the following procedure. […] Sterile 10×PBS was added to the solution resulting in a 1×PBS concentration and 4 mg/mL DGP DP concentration. The mixture was then stirred at 1000 rpm for another 30 min at RT. For DGP DP prepared at 12 or 18 mL scale, the same procedure was followed, with volumes, vials, and stir bars scaled up to achieve the 4 mg/mL DGP DP preparation.
In cases where DGP DS was micronized prior to use, DGP DS underwent jet milling using an M-50 (Microtech Engineering Company) to reduce DS size to an average of 3-5 μm. […] For in vitro studies, DGP DP samples were sonicated at 2 W (low energy) or 4 W (medium energy) over two 30 s intervals. For in vivo studies, DGP DP samples were sonicated at 3 W over two 30 s intervals as a mid-energy assessment.
DGP (Compound 2) DP Sizing. DGP DP size was determined using a Malvern Mastersizer 3000 with a Hydro SV attachment. Briefly, DGP DP was diluted to 1 mg/mL in water prior to sizing. The 1 mg/mL DGP DP was added drop-wise to a measurement chamber filled with water under spinning until laser obscuration was 3-5%. Five measurements were taken per sample, with the average of the measurements reported.

[2] = 18 mL scale, no DS or DP modification

Structure (SMILES)	migration to the basal chamber (human moDCs)	Particulate Size D10 ([1]; 3 mL scale) [μm]	Particulate Size D50 ([1]; 3 mL scale) [μm]	Particulate Size D90 ([1]; 3 mL scale) [μm]	Particulate Size D10 ([1]; 12 mL scale) [μm]	Particulate Size D50 ([1]; 12 mL scale) [μm]	Particulate Size D90 ([1]; 12 mL scale) [μm]	average size ([1]; 12 or 18 mL scale)	Particulate Size D10 [1, 2] [μm]	Particulate Size D50 [1, 2] [μm]	Particulate Size D90 [1, 2] [μm]
CC(C)(O)c1coc(S(=O)(=O)NC(=O)Nc2c3c(cc4c2CCC4)CCC3)c1 [MCC950, reference compound]	did not inhibit the hypermigration observed with R848+DGP										
CCCCCCCCCCCCCCCCCCCCCCOC[C@@H](O)COP(=O)(O)O [Compound 2, 1-docosyl-sn-glycerol-3-phosphate]		6.83	13.8	27.5	12.0	25.0	51.7	26-27 μm	12.9	26.7	56.0
